Test system: SEM cells
Assay: cell viability relative to DMSO control; higher = less cytotoxic
Details: 48 h
In short: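 In 1536-well plates, 5 μl of leukemia cells were seeded per well: 500 cells/well for NOMO1 or SEM and 1000 cells/well for P12-Ichikawa. Each line had first been adapted for at least four passages in each medium. Library compounds in DMSO were pin-dosed at 11 threefold concentrations between 47 μM and 0.79 nM, and CellTiter-Glo One luminescence was read after 48 h at 37°C. Viability is a per-plate percentage relative to DMSO wells, with cell-free wells as background.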

[1] = HPLM + 10% dialyzed FBS, 0.000781 µM
[2] = HPLM + 10% dialyzed FBS, 0.00234 µM
[3] = HPLM + 10% dialyzed FBS, 0.00702 µM
[4] = HPLM + 10% dialyzed FBS, 0.0211 µM
[5] = HPLM + 10% dialyzed FBS, 0.0632 µM
[6] = HPLM + 10% dialyzed FBS, 0.19 µM
[7] = HPLM + 10% dialyzed FBS, 0.569 µM
[8] = HPLM + 10% dialyzed FBS, 1.71 µM
[9] = HPLM + 10% dialyzed FBS, 5.12 µM
[10] = HPLM + 10% dialyzed FBS, 15.4 µM
[11] = HPLM + 10% dialyzed FBS, 46.1 µM
[12] = RPMI 5 mM glucose + 10% FBS, 0.000781 µM
[13] = RPMI 5 mM glucose + 10% FBS, 0.00234 µM
[14] = RPMI 5 mM glucose + 10% FBS, 0.00702 µM
[15] = RPMI 5 mM glucose + 10% FBS, 0.0211 µM
[16] = RPMI 5 mM glucose + 10% FBS, 0.0632 µM
[17] = RPMI 5 mM glucose + 10% FBS, 0.19 µM
[18] = RPMI 5 mM glucose + 10% FBS, 0.569 µM
[19] = RPMI 5 mM glucose + 10% FBS, 1.71 µM
[20] = RPMI 5 mM glucose + 10% FBS, 5.12 µM
[21] = RPMI 5 mM glucose + 10% FBS, 15.4 µM
[22] = RPMI 5 mM glucose + 10% FBS, 46.1 µM
[23] = RPMI 5 mM glucose + 10% dialyzed FBS, 0.000781 µM
[24] = RPMI 5 mM glucose + 10% dialyzed FBS, 0.00234 µM
[25] = RPMI 5 mM glucose + 10% dialyzed FBS, 0.00702 µM
[26] = RPMI 5 mM glucose + 10% dialyzed FBS, 0.0211 µM
[27] = RPMI 5 mM glucose + 10% dialyzed FBS, 0.0632 µM
[28] = RPMI 5 mM glucose + 10% dialyzed FBS, 0.19 µM
[29] = RPMI 5 mM glucose + 10% dialyzed FBS, 0.569 µM
[30] = RPMI 5 mM glucose + 10% dialyzed FBS, 1.71 µM
[31] = RPMI 5 mM glucose + 10% dialyzed FBS, 5.12 µM
[32] = RPMI 5 mM glucose + 10% dialyzed FBS, 15.4 µM
[33] = RPMI 5 mM glucose + 10% dialyzed FBS, 46.1 µM

Row | SMILES | cell viability [1] [%] | cell viability [2] [%] | cell viability [3] [%] | cell viability [4] [%] | cell viability [5] [%] | cell viability [6] [%] | cell viability [7] [%] | cell viability [8] [%] | cell viability [9] [%] | cell viability [10] [%] | cell viability [11] [%] | cell viability [12] [%] | cell viability [13] [%] | cell viability [14] [%] | cell viability [15] [%] | cell viability [16] [%] | cell viability [17] [%] | cell viability [18] [%] | cell viability [19] [%] | cell viability [20] [%] | cell viability [21] [%] | cell viability [22] [%] | cell viability [23] [%] | cell viability [24] [%] | cell viability [25] [%] | cell viability [26] [%] | cell viability [27] [%] | cell viability [28] [%] | cell viability [29] [%] | cell viability [30] [%] | cell viability [31] [%] | cell viability [32] [%] | cell viability [33] [%]
1 | O=C(Nc1ccncc1)C(=O)c1cn(Cc2ccc(Cl)cc2)c2ccccc12 | 92.5 | 94 | 91.7 | 81.9 | 54.8 | 31.5 | 29.4 | 24.7 | 25.7 | 28.5 | 26.3 | 130 | 105 | 122 | 114 | 57.7 | 33 | 17.8 | 18.2 | 18.7 | 22.2 | 28 | 107 | 88.4 | 95.3 | 75.9 | 58.5 | 27.7 | 23.9 | 20.9 | 26.6 | 25.3 | 30.5
2 | Oc1ccc(-c2nc(-c3ccncc3)c(-c3ccc(F)cc3)[nH]2)cc1 | 83.4 | 90.6 | 102 | 107 | 104 | 69.1 | 42.4 | 45.4 | 7.43 | 2.46 | 0.872 | 105 | 86.9 | 89.5 | 93.6 | 76.1 | 54.7 | 34.9 | 30.3 | 1.32 | 0.723 | 0.55 | 114 | 99.9 | 104 | 98.8 | 83 | 48.4 | 41.3 | 32.8 | 5.58 | 1.19 | 0.981
3 | CN1CCC(=C2c3ccccc3CCc3sccc32)CC1 | 75.4 | 85 | 107 | 94.1 | 101 | 109 | 93.3 | 111 | 102 | 95.8 | 51.1 | 81.8 | 104 | 97.4 | 106 | 96.1 | 113 | 111 | 120 | 97.3 | 117 | 82.1 | 82.5 | 110 | 114 | 99.5 | 104 | 118 | 122 | 111 | 124 | 108 | 68.3
4 | Clc1ccc(C(Cn2ccnc2)OCc2ccc(Sc3ccccc3)cc2)c(Cl)c1 (stereo not given) | 88.8 | 74.9 | 99.2 | 96.4 | 98.2 | 79.4 | 93.6 | 77.9 | 82.1 | 87.1 | 81.1 | 110 | 104 | 109 | 108 | 116 | 106 | 105 | 92.2 | 77 | 92.7 | 95.8 | 101 | 95.7 | 107 | 122 | 130 | 100 | 103 | 93.5 | 81 | 96.8 | 75.7
5 | NCC/1=C/NC(=S)N1[C@H]2CCC3=C(F)C=C(F)C=C3C2 | 102 | 107 | 110 | 109 | 93.3 | 102 | 105 | 120 | 99.5 | 94.5 | 43.8 | 118 | 122 | 123 | 119 | 112 | 114 | 120 | 115 | 115 | 108 | 15.4 | – | – | – | – | – | – | – | – | – | – | –
6 | NC(=O)c1c(OCc2c(F)cc(Br)cc2F)nsc1NC(=O)NCCCCN1CCCC1 | 116 | 122 | 111 | 106 | 108 | 131 | 118 | 111 | 84.4 | 39.2 | 35.9 | 91.6 | 100 | 78.7 | 83.2 | 90.5 | 110 | 109 | 103 | 75.4 | 22.4 | 27.9 | 97 | 130 | 97.6 | 116 | 97 | 129 | 123 | 114 | 107 | 37.1 | 63.7
7 | Cc1nc(N)sc1-c1ccnc(Nc2ccc(N3CCOCC3)cc2)n1 | 88.8 | 98.7 | 102 | 102 | 107 | 107 | 85.5 | 83.8 | 30.5 | 26.2 | 31.3 | 78.7 | 111 | 124 | 106 | 130 | 107 | 94.9 | 87.1 | 19.1 | 14.2 | 18.1 | 81 | 95.6 | 114 | 118 | 112 | 102 | 81 | 73.7 | 22.4 | 18.4 | 17.2
8 | COc1cc([C@@H]2c3cc4c(cc3[C@@H](O)C3COC(=O)C32)OCO4)cc(OC)c1O (stereo not given in full) | 73.2 | 86.7 | 86 | 21.1 | 84.4 | 46.9 | 22.2 | 24.3 | 16.6 | 11.3 | 9.58 | 96.4 | 83.3 | 101 | 13.1 | 104 | 47.6 | 19.7 | 14.7 | 9.69 | 4.01 | 4.26 | 78.6 | 70.2 | 98.2 | 16.1 | 82.9 | 52.8 | 19 | 19.5 | 11.8 | 7.08 | 4.88
9 | CCCCC(F)(F)[C@@]1(O)CC[C@H]2[C@@H](CC(=O)[C@@H]2CCCCCCC(=O)O)O1 | 120 | 124 | 123 | 121 | 112 | 110 | 118 | 116 | 101 | 91.6 | 98.6 | – | – | – | – | – | – | – | – | – | – | – | – | – | – | – | – | – | – | – | – | – | –
10 | Cc1ccc(Nc2nccc(N(C)c3ccc4c(C)n(C)nc4c3)n2)cc1[S+](N)(=O)[O-] | 83.9 | 89 | 88 | 105 | 98.2 | 91.7 | 91.3 | 91 | 75.3 | 61.3 | 18.1 | 87.2 | 92.9 | 95.7 | 109 | 86.3 | 91.6 | 77.5 | 79.6 | 63 | 38.9 | 7.79 | 95.9 | 83 | 99.7 | 105 | 92.3 | 101 | 90.2 | 81.8 | 57.5 | 49.2 | 14.8
11 | O=C(O)CCCc1ccc(N(CCCl)CCCl)cc1 | 96.5 | 108 | 112 | 119 | 120 | 129 | 125 | 136 | 120 | 102 | 55.5 | 95.7 | 91.8 | 126 | 122 | 114 | 126 | 121 | 119 | 124 | 101 | 20.2 | 97.4 | 113 | 120 | 111 | 128 | 129 | 133 | 122 | 137 | 113 | 36.8
12 | COc1cc2nc(N3CCN(C(=O)c4ccco4)CC3)nc(N)c2cc1OC | 54.4 | 61.9 | 81.8 | 86.4 | 89.7 | 85.8 | 73 | 91.9 | 87 | 16.4 | 13.6 | 76.2 | 78.4 | 90.6 | 80.6 | 104 | 96.2 | 98.4 | 101 | 105 | 13.5 | 8.2 | 78.2 | 88.3 | 93.8 | 104 | 109 | 81.2 | 91 | 91.4 | 80.2 | 14 | 11.9
13 | CON(C)C(=O)N1\N=C(/S[C@]1(CCCN)C2=CC=CC=C2)C3=CC(=CC=C3F)F | 23.7 | 22.9 | 24.5 | 28.8 | 26.4 | 27.4 | 30.7 | 27 | 29.9 | 31.7 | 24.8 | 20.8 | 20.4 | 20.1 | 22.6 | 22.8 | 21.5 | 25.6 | 18.8 | 21.3 | 20.4 | 23.8 | 21.2 | 21.1 | 19.9 | 21 | 21.3 | 23.2 | 23.2 | 24.6 | 23.9 | 20.6 | 21.6
14 | COC1=CC(=C2C(=O)N(COC/3=C/C(=O)N4\C=C/C=C(OCCN5CCCCC5)\C4=N3)[S+]([O-])(=O)C2=C1)C(C)C | 116 | 119 | 128 | 131 | 103 | 135 | 108 | 83.4 | 148 | 128 | 114 | 119 | 132 | 125 | 129 | 134 | 134 | 106 | 71 | 137 | 143 | 102 | 105 | 113 | 120 | 123 | 114 | 125 | 82.9 | 63.5 | 113 | 114 | 97.5
15 | O=C(N[C@H]1CN2CCC1CC2)c1ccc(Cl)cc1 | 89.3 | 96.5 | 95.5 | 99.8 | 98.7 | 87.4 | 96.3 | 105 | 102 | 98.5 | 84.4 | 84 | 92.2 | 99.5 | 87.8 | 96.1 | 95.9 | 101 | 99.5 | 93.3 | 88.6 | 60.2 | 93.2 | 98.9 | 94.8 | 94.3 | 104 | 116 | 96.1 | 93.2 | 94.1 | 107 | 76.1
16 | COc1cc([S+](C)(=O)[O-])ccc1Nc1nc2ccc(-c3ccc(NC(=O)[C@H](C)c4ccc(F)cc4)cc3)cn2n1 | 90.4 | 87.8 | 102 | 89.2 | 107 | 102 | 94.8 | 41.9 | 52.1 | 52.3 | 43.1 | 98 | 117 | 92.3 | 86.1 | 124 | 108 | 104 | 41.2 | 41.4 | 34.6 | 31 | 88.4 | 112 | 108 | 90.4 | 136 | 99.1 | 98.1 | 53.9 | 50 | 48.2 | 43

Source: the supplement of paper PMC11451515
